Measured values taken from PubChem BioAssay (NCI).
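Five concentrations, 48 hours, 96-well plates. GI50 = concentration required for 50% inhibition of growth. TGI: concentration producing complete growth inhibition.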

Legend:
Experiment in all cases: growth of human tumour cells (NCI), 48 h
NCI-H226 lung = system: NCI-H226 lung
HCT-15 colon = system: HCT-15 colon
OVCAR-3 ovarian = system: OVCAR-3 ovarian
MCF7 breast = system: MCF7 breast
UO-31 renal = system: UO-31 renal
OVCAR-4 ovarian = system: OVCAR-4 ovarian
T-47D breast = system: T-47D breast
UACC-62 melanoma = system: UACC-62 melanoma
SNB-75 CNS = system: SNB-75 CNS
EKVX NSCLC = system: EKVX NSCLC
HCT-116 colon = system: HCT-116 colon
MALME-3M melanoma = system: MALME-3M melanoma
UACC-257 melanoma = system: UACC-257 melanoma
DU-145 prostate = system: DU-145 prostate
SF-295 CNS = system: SF-295 CNS
A549 NSCLC = system: A549 NSCLC
PC-3 prostate = system: PC-3 prostate
SK-OV-3 ovarian = system: SK-OV-3 ovarian
HT29 colon = system: HT29 colon
RPMI-8226 leukemia = system: RPMI-8226 leukemia
ACHN renal = system: ACHN renal
SF-539 CNS = system: SF-539 CNS
786-0 renal = system: 786-0 renal
SK-MEL-28 melanoma = system: SK-MEL-28 melanoma
SK-MEL-5 melanoma = system: SK-MEL-5 melanoma
HOP-92 NSCLC = system: HOP-92 NSCLC
TK-10 renal = system: TK-10 renal
HCC-2998 colon = system: HCC-2998 colon
LOX IMVI melanoma = system: LOX IMVI melanoma
HS 578T breast = system: HS 578T breast
CCRF-CEM leukemia = system: CCRF-CEM leukemia
SW-620 colon = system: SW-620 colon
COLO 205 colon = system: COLO 205 colon
SNB-19 CNS = system: SNB-19 CNS
CAKI-1 renal = system: CAKI-1 renal
RXF 393 renal = system: RXF 393 renal
U251 CNS = system: U251 CNS
NCI-H460 lung = system: NCI-H460 lung
BT-549 breast = system: BT-549 breast
KM12 colon = system: KM12 colon
MDA-MB-231 breast = system: MDA-MB-231 breast
SK-MEL-2 melanoma = system: SK-MEL-2 melanoma
NCI-H522 lung = system: NCI-H522 lung
SN12C renal = system: SN12C renal
MDA-MB-435 = system: MDA-MB-435
OVCAR-8 ovarian = system: OVCAR-8 ovarian
OVCAR-5 ovarian = system: OVCAR-5 ovarian
A498 renal = system: A498 renal
M14 melanoma = system: M14 melanoma
NCI/ADR-RES ovarian = system: NCI/ADR-RES ovarian
IGROV1 ovarian = system: IGROV1 ovarian
HOP-62 NSCLC = system: HOP-62 NSCLC
SF-268 CNS = system: SF-268 CNS

Molecule COc1cc2nc(-c3ccc(C(F)(F)F)cc3)cc(OCCCNCC3CCCO3)c2cc1OC (stereo unspecified) has a GI50 (NCI-H226 lung) of 2.51 µM, a TGI (NCI-H226 lung) of 8.6 µM and a GI50 (HCT-15 colon) of 3.1 µM. For the same molecule, the TGI (HCT-15 colon) was 12.3 µM, the GI50 (OVCAR-3 ovarian) was 12.3 µM and the TGI (OVCAR-3 ovarian) was 27.5 µM. For the same molecule, the GI50 (MCF7 breast) was 3.23 µM, the TGI (MCF7 breast) was 15.9 µM and the GI50 (UO-31 renal) was 2.53 µM. For the same molecule, the TGI (UO-31 renal) was 15.6 µM, the GI50 (OVCAR-4 ovarian) was 9.01 µM and the TGI (OVCAR-4 ovarian) was 21.5 µM. For the same molecule, the GI50 (T-47D breast) was 4.06 µM, the TGI (T-47D breast) was 19 µM and the GI50 (UACC-62 melanoma) was 3.54 µM. For the same molecule, the TGI (UACC-62 melanoma) was 14.5 µM, the GI50 (SNB-75 CNS) was 8.45 µM and the TGI (SNB-75 CNS) was 21.9 µM. For the same molecule, the GI50 (EKVX NSCLC) was 4.22 µM, the TGI (EKVX NSCLC) was 18.6 µM and the GI50 (HCT-116 colon) was 3.45 µM. The TGI (HCT-116 colon) was 14.8 µM, the GI50 (MALME-3M melanoma) was 3.17 µM and the TGI (MALME-3M melanoma) was 13.8 µM. For the same molecule, the GI50 (UACC-257 melanoma) was 2.01 µM, the TGI (UACC-257 melanoma) was 4.79 µM and the GI50 (DU-145 prostate) was 9.03 µM. For the same molecule, the TGI (DU-145 prostate) was 21.7 µM, the GI50 (SF-295 CNS) was 8.68 µM and the TGI (SF-295 CNS) was 22 µM. The GI50 (A549 NSCLC) was 4.43 µM, the TGI (A549 NSCLC) was 21.2 µM and the GI50 (PC-3 prostate) was 3.8 µM. The TGI (PC-3 prostate) was 17.2 µM, the GI50 (SK-OV-3 ovarian) was 12.4 µM and the TGI (SK-OV-3 ovarian) was 25.8 µM. For the same molecule, the GI50 (HT29 colon) was 2.98 µM, the TGI (HT29 colon) was 11.2 µM and the GI50 (RPMI-8226 leukemia) was 2.39 µM. The TGI (RPMI-8226 leukemia) was 12.2 µM, the GI50 (ACHN renal) was 4.89 µM and the TGI (ACHN renal) was 18.2 µM. It also gave a GI50 (SF-539 CNS) of 11.2 µM, a TGI (SF-539 CNS) of 24 µM and a GI50 (786-0 renal) of 6.44 µM. It also gave a TGI (786-0 renal) of 21.1 µM, a GI50 (SK-MEL-28 melanoma) of 5.77 µM and a TGI (SK-MEL-28 melanoma) of 19.3 µM. It also gave a GI50 (SK-MEL-5 melanoma) of 11.7 µM, a TGI (SK-MEL-5 melanoma) of 24.7 µM and a GI50 (HOP-92 NSCLC) of 1.57 µM. For the same molecule, the TGI (HOP-92 NSCLC) was 7.85 µM, the GI50 (TK-10 renal) was 12.2 µM and the TGI (TK-10 renal) was 25.3 µM. The GI50 (HCC-2998 colon) was 10.3 µM, the TGI (HCC-2998 colon) was 23.6 µM and the GI50 (LOX IMVI melanoma) was 1.61 µM. It also gave a TGI (LOX IMVI melanoma) of 4.33 µM, a GI50 (HS 578T breast) of 10.4 µM and a TGI (HS 578T breast) of 25.8 µM. It also gave a GI50 (CCRF-CEM leukemia) of 6.61 µM, a TGI (CCRF-CEM leukemia) of 24.4 µM and a GI50 (SW-620 colon) of 8.16 µM. It also gave a TGI (SW-620 colon) of 22 µM, a GI50 (COLO 205 colon) of 3.09 µM and a TGI (COLO 205 colon) of 17.7 µM. For the same molecule, the GI50 (SNB-19 CNS) was 13.3 µM, the TGI (SNB-19 CNS) was 28.4 µM and the GI50 (CAKI-1 renal) was 1.74 µM. It also gave a TGI (CAKI-1 renal) of 5.32 µM, a GI50 (RXF 393 renal) of 1.38 µM and a TGI (RXF 393 renal) of 5.23 µM. For the same molecule, the GI50 (U251 CNS) was 7.37 µM, the TGI (U251 CNS) was 26.5 µM and the GI50 (NCI-H460 lung) was 3.89 µM. It also gave a TGI (NCI-H460 lung) of 15.8 µM, a GI50 (BT-549 breast) of 6.92 µM and a TGI (BT-549 breast) of 21.1 µM. For the same molecule, the GI50 (KM12 colon) was 5.49 µM, the TGI (KM12 colon) was 20.5 µM and the GI50 (MDA-MB-231 breast) was 3.79 µM. It also gave a TGI (MDA-MB-231 breast) of 17 µM, a GI50 (SK-MEL-2 melanoma) of 13.7 µM and a TGI (SK-MEL-2 melanoma) of 26.9 µM. The GI50 (NCI-H522 lung) was 3.05 µM, the TGI (NCI-H522 lung) was 13.8 µM and the GI50 (SN12C renal) was 4.63 µM. For the same molecule, the TGI (SN12C renal) was 18.4 µM, the GI50 (MDA-MB-435) was 3.13 µM and the TGI (MDA-MB-435) was 11.7 µM. For the same molecule, the GI50 (OVCAR-8 ovarian) was 3.72 µM, the TGI (OVCAR-8 ovarian) was 16.6 µM and the GI50 (OVCAR-5 ovarian) was 4.09 µM. It also gave a TGI (OVCAR-5 ovarian) of 17.5 µM, a GI50 (A498 renal) of 20.6 µM and a TGI (A498 renal) of 37 µM. For the same molecule, the GI50 (M14 melanoma) was 3.09 µM, the TGI (M14 melanoma) was 12.4 µM and the GI50 (NCI/ADR-RES ovarian) was 6.92 µM. The TGI (NCI/ADR-RES ovarian) was 24.5 µM, the GI50 (IGROV1 ovarian) was 4.41 µM and the TGI (IGROV1 ovarian) was 18.8 µM. The GI50 (HOP-62 NSCLC) was 6.01 µM, the TGI (HOP-62 NSCLC) was 21.4 µM and the GI50 (SF-268 CNS) was 10.4 µM. It also gave a TGI (SF-268 CNS) of 25 µM.
